Experimental findings from the supplement of paper PMC4723716 are described below.

Counter-ions that a name gives are not always drawn.

This test concerns Plasmodium falciparum NF54 gametocytes. The settings on record: 384, incubation time: 72 h. The protocol: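 Known antimalarials and MMV control compounds in dose response against each stage (I–V) […] The fitted EC50 is reported as IC50 in µM; '>' marks the top dose reached without a curve.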
[1] abbreviates: gametocyte stage: Stage I Dose Response IC50 (µM), assay protocol: TSSA.
Setting [2] is: gametocyte stage: Stage II Dose Response IC50 (µM), assay protocol: TSSA.
The mark [3] stands for this setting: gametocyte stage: Stage III Dose Response IC50 (µM), assay protocol: TSSA.
Where [4] appears, read: gametocyte stage: Stage IV Dose Response IC50 (µM), assay protocol: TSSA.
Where [5] appears, read: gametocyte stage: Stage V Dose Response IC50 (µM), assay protocol: TSSA.
[6] abbreviates: gametocyte stage: Stage I Dose Response IC50 (µM), assay protocol: SaLSSA.
[7] abbreviates: gametocyte stage: Stage II Dose Response IC50 (µM), assay protocol: SaLSSA.
The mark [8] stands for this setting: gametocyte stage: Stage III Dose Response IC50 (µM), assay protocol: SaLSSA.
The mark [9] stands for this setting: gametocyte stage: Stage IV Dose Response IC50 (µM), assay protocol: SaLSSA.
Where [10] appears, read: gametocyte stage: Stage V Dose Response IC50 (µM), assay protocol: SaLSSA.

With `C[C@@H]1C[C@@H]([C@H](O)CC2CC(=O)NC(=O)C2)C(=O)[C@@H](C)C1` [Cycloheximide] [listing 1 of 2 here], the “IC50 of gametocyte viability” value reads like this: under setting [1], 1.23 µM; under setting [2], 2.46 µM; under setting [3], 2.51 µM; under setting [4], 1.92 µM; under setting [5], 4.62 µM.
On to `C[C@@H]1C[C@@H]([C@H](O)CC2CC(=O)NC(=O)C2)C(=O)[C@@H](C)C1` [Cycloheximide] [listing 2 of 2 here], for which the “IC50 of gametocyte viability” value was 1.92 µM under setting [6]; 0.64 µM under setting [7]; 0.913 µM under setting [8]; 0.477 µM under setting [9]; 2.69 µM under setting [10].
The corresponding values for `Nc1ccc(S(=O)(=O)c2ccc(N)cc2)cc1` [Dapsone] are above 12.5 µM, above 12.5 µM, above 12.5 µM, above 12.5 µM and above 12.5 µM.
For the compound `CC(=O)N(O)CCCCCNC(=O)CCC(=O)N(O)CCCCCNC(=O)CCC(=O)N(O)CCCCCN` [Deferoxamine mesylate salt], the “IC50 of gametocyte viability” value was above 12.5 µM under setting [6]; above 12.5 µM under setting [7]; above 12.5 µM under setting [8]; above 12.5 µM under setting [9]; above 12.5 µM under setting [10].
Regarding `C[C@H]1c2cccc(O)c2C(=O)C2=C(O)[C@]3(O)C(=O)C(C(N)=O)=C(O)[C@@H](N(C)C)[C@@H]3[C@@H](O)[C@@H]21` [Doxycyclin], the “IC50 of gametocyte viability” value reads like this: under setting [6], above 12.5 µM; under setting [7], above 12.5 µM; under setting [8], above 12.5 µM; under setting [9], above 12.5 µM; under setting [10], above 12.5 µM.
On to `C[C@H]1c2cccc(O)c2C(O)=C2C(=O)[C@]3(O)C(O)=C(C(N)=O)C(=O)[C@@H](N(C)C)[C@@H]3[C@@H](O)[C@@H]21` [Doxycyclin], for which the “IC50 of gametocyte viability” value under setting [1] was above 12.5 µM; the “IC50 of gametocyte viability” value under setting [2] is above 12.5 µM; the “IC50 of gametocyte viability” value under setting [3] is above 12.5 µM; the “IC50 of gametocyte viability” value under setting [4] was above 12.5 µM; the “IC50 of gametocyte viability” value under setting [5] was above 12.5 µM.
As to `CC[C@H](C)[C@H](NC(=O)[C@H]([C@@H](C)CC)N(C)C(C)=O)C(=O)N[C@H](C(=O)N[C@@H](CC(C)C)C(=O)[C@@]1(C)CO1)[C@@H](C)O` [Epoxomycin], the “IC50 of gametocyte viability” value under setting [10] is 0.0128 µM.
Regarding `Cc1cc2nc3c(=O)[nH]c(=O)nc-3n(C[C@H](O)[C@H](O)[C@H](O)CO)c2cc1C` [Flavin mononucleotid (Riboflavin)], the “IC50 of gametocyte viability” value reads like this: under setting [6], above 12.5 µM; under setting [7], above 12.5 µM; under setting [8], above 12.5 µM; under setting [9], above 12.5 µM; under setting [10], above 12.5 µM.
With `CCCCN(CCCC)CCC(O)c1cc2c(Cl)cc(Cl)cc2c2cc(C(F)(F)F)ccc12` (centres undefined) [Halofantrine] [listing 1 of 2 here], the “IC50 of gametocyte viability” value runs as follows: under setting [1], 0.00577 µM; under setting [4], above 12.5 µM; under setting [5], above 12.5 µM.
As to `CCCCN(CCCC)CCC(O)c1cc2c(Cl)cc(Cl)cc2c2cc(C(F)(F)F)ccc12` (centres undefined) [Halofantrine] [listing 2 of 2 here], the “IC50 of gametocyte viability” value is, setting by setting: under setting [6], 0.00161 µM; under setting [7], 0.000896 µM; under setting [8], 0.0233 µM; under setting [9], 1.51 µM; under setting [10], 0.0075 µM.
Consider `CCN(CCO)CCCC(C)Nc1ccnc2cc(Cl)ccc12` (centres undefined) [Hydroxychloroquine], for which the “IC50 of gametocyte viability” value runs as follows: under setting [6], 0.107 µM; under setting [1], 0.104 µM; under setting [7], 0.131 µM; under setting [2], 0.139 µM; under setting [8], above 4.49 µM; under setting [3], above 6.25 µM. The “IC50 of gametocyte viability” value was above 6.25 µM under setting [9], above 6.25 µM under setting [4], above 6.25 µM under setting [10] and above 6.25 µM under setting [5].
Consider `CC1Cc2c([nH]c3cc(F)c(F)cc23)C2(N1)C(=O)Nc1ccc(Cl)cc12` (centres undefined) [KAF246], for which the “IC50 of gametocyte viability” value amounted to 0.00139 µM under setting [6]; 0.00186 µM under setting [7]; 0.0021 µM under setting [8]; 0.00177 µM under setting [9]; 0.00235 µM under setting [10].
The corresponding values for `CC1(C)c2nc(-c3ccc(F)cc3)c(Nc3ccc(Cl)cc3)n2CCN1C(=O)CN` [KAF(GNF)179] are 0.341 µM, 0.0641 µM, 0.0199 µM, 0.00915 µM and 0.00336 µM.
The corresponding values for `CN(C(=O)c1cn2c(-c3ccc(C#N)cc3)cnc2cn1)c1ccc(C(F)(F)F)cc1` [KAI407] are 0.593 µM, 0.636 µM, 0.415 µM, 0.329 µM and 0.156 µM.
As for `CNc1ccc(N(C)C(=O)c2cn3c(-c4ccc(Cl)cc4)cnc3cn2)cc1` [KDU691], the “IC50 of gametocyte viability” value was 0.532 µM under setting [6]; 0.565 µM under setting [7]; 0.354 µM under setting [8]; 0.237 µM under setting [9]; 0.15 µM under setting [10].
The corresponding values for `CCCCN(CCCC)CC(O)c1cc(Cl)cc2c1-c1ccc(Cl)cc1/C2=C/c1ccc(Cl)cc1` (centres undefined) [Lumefantrine] [listing 1 of 2 here] are 0.0128 µM, 0.0131 µM, 0.015 µM, 0.599 µM and 0.0523 µM.
As to `CCCCN(CCCC)CC(O)c1cc(Cl)cc2c1-c1ccc(Cl)cc1/C2=C/c1ccc(Cl)cc1` (centres undefined) [Lumefantrine] [listing 2 of 2 here], the “IC50 of gametocyte viability” value was 0.0224 µM under setting [1]; 0.0352 µM under setting [2]; 0.0227 µM under setting [3]; above 9.77 µM under setting [4]; above 12.5 µM under setting [5].
The corresponding values for `OC(c1cc(C(F)(F)F)nc2c(C(F)(F)F)cccc12)C1CCCCN1` (centres undefined) [Mefloquine (+ RS)] are 0.0512 µM, 0.0471 µM, 0.0585 µM, 1.64 µM and 6.34 µM.
On to `O[C@@H](c1cc(C(F)(F)F)nc2c(C(F)(F)F)cccc12)[C@H]1CCCCN1` [Mefloquine (+ RS)], for which the “IC50 of gametocyte viability” value was 0.0379 µM under setting [6]; 0.039 µM under setting [7]; 0.078 µM under setting [8]; 0.579 µM under setting [9]; 0.158 µM under setting [10].
In the case of `CN(C)c1ccc2nc3ccc(=[N+](C)C)cc-3sc2c1` [Methylene Blue trihydrate], the “IC50 of gametocyte viability” value reads like this: under setting [1], 0.0222 µM; under setting [2], 0.0164 µM; under setting [3], 0.0181 µM; under setting [4], 0.0454 µM; under setting [5], 1.04 µM.
As for `CN(C)c1ccc2nc3ccc(N(C)C)cc3[s+]c2c1` [Methylene Blue trihydrate], the “IC50 of gametocyte viability” value is, setting by setting: under setting [6], 0.0199 µM; under setting [7], 0.0153 µM; under setting [8], 0.0133 µM; under setting [9], 0.0117 µM; under setting [10], 0.258 µM.
The corresponding values for `CC(=O)N[C@@H](C(=O)O)C(C)(C)S` [N-acetyl-D-penicillamine] are above 12.5 µM, above 12.5 µM, above 12.5 µM, above 12.5 µM and above 12.5 µM.
`COc1cc(N[C@H](C)CCCN)c2nccc(C)c2c1Oc1ccc(Cl)c(Cl)c1` [NPC-1161B] [listing 1 of 2 here]: the “IC50 of gametocyte viability” value amounted to 5.21 µM under setting [1]; 6.63 µM under setting [2]; 4.57 µM under setting [3]; 6.24 µM under setting [4]; 5.22 µM under setting [5].
`COc1cc(N[C@H](C)CCCN)c2nccc(C)c2c1Oc1ccc(Cl)c(Cl)c1` [NPC-1161B] [listing 2 of 2 here]: the “IC50 of gametocyte viability” value runs as follows: under setting [6], 2 µM; under setting [7], 2.02 µM; under setting [8], 3.51 µM; under setting [9], 3.6 µM; under setting [10], 2.86 µM.
`CC(C)(C)NCc1cc(Nc2ccnc3cc(Cl)ccc23)c2c(c1O)CCCC2` [Naphthoquine] [listing 1 of 2 here]: the “IC50 of gametocyte viability” value runs as follows: under setting [1], 0.0234 µM; under setting [2], 0.0128 µM; under setting [3], above 4.17 µM; under setting [4], above 4.17 µM; under setting [5], above 4.17 µM.
On to `CC(C)(C)NCc1cc(Nc2ccnc3cc(Cl)ccc23)c2c(c1O)CCCC2` [Naphthoquine] [listing 2 of 2 here], for which the “IC50 of gametocyte viability” value was 0.0251 µM under setting [6]; 0.0145 µM under setting [7]; 0.296 µM under setting [8]; above 4.17 µM under setting [9]; above 4.17 µM under setting [10].
